Measurements taken from ChEMBL document CHEMBL2385074, “Structure-activity relationship analysis of bufadienolide-induced in vitro growth inhibitory effects on mouse and human cancer cells” (J Nat Prod, 2013).
Active and inactive are the calls of the source.

What was measured:
Assay type in all cases: functional, cell-based
MCF7 = test: Cytotoxicity against human MCF7 cells at <= 10 uM after 3 days by MTT assay
Hs 683 = test: Cytotoxicity against human Hs683 cells at <= 10 uM after 3 days by MTT assay
A549 = test: Cytotoxicity against human A549 cells at <= 10 uM after 3 days by MTT assay
SK-MEL-28 = test: Cytotoxicity against human SK-MEL-28 cells at <= 10 uM after 3 days by MTT assay
CT26.WT = test: Cytotoxicity against mouse CT26.WT cells at <= 10 uM after 3 days by MTT assay
U-373MG ATCC = test: Cytotoxicity against human U373 cells at <= 10 uM after 3 days by MTT assay
B16-F10 = test: Cytotoxicity against mouse B16F10 cells at <= 10 uM after 3 days by MTT assay
PC-3 = test: Cytotoxicity against human PC3 cells at <= 10 uM after 3 days by MTT assay

Measured: Activity

COC(=O)[C@H]1CC[C@]2(O)[C@@H]3CC[C@@H]4C[C@@H](OC(C)=O)CC[C@]4(C)[C@H]3[C@H](OC(C)=O)[C@@H](OC(C)=O)[C@]12C
inactive: all assays above

COC(=O)[C@H]1CC[C@]2(O)[C@@H]3CC[C@@H]4C[C@@H](OC(C)=O)CC[C@]4(C)[C@H]3[C@H](OC(C)=O)C(=O)[C@]12C
inactive: all assays above

C[C@]12CC[C@H](OC(c3ccccc3)c3ccccc3)C[C@@]1(O)CC[C@@H]1[C@@H]2CC[C@]2(C)[C@@H](C(=O)OC(c3ccccc3)c3ccccc3)CC[C@]12O
inactive: all assays above
